pIC50: −log10 of the molar value. Like-named read-outs stand apart in the source and are kept apart here.
Target: cGAS (Homo sapiens, UniProt Q8N884)
Assay: cGAS enzymatic assay (FP/TR-FRET detection of cGAMP)
Type: biochemical
Design: The cGAS assay was used to screen 100,000 compounds with full-length human cGAS; 6xHis; made in house
Conditions: cGAS (30 nM)
Method: Some exemplary compounds of the disclosure were tested for inhibition of cGAS (30 nM). The results are provided in Table 1 where “A” indicates an IC50 of less than 100 nM, “B” indicates an IC50 of greater than 100 nM and less than 500 nM, “C” indicates an IC50 of greater than 500 nM and less than 1 μM, “D” indicates an IC50 of greater than 1 μM and less than 10 μM, and “E” indicates an IC50 of greater than 10 μM.
A homogenous cGAS enzymatic assay was developed with fluorescence polarization (FP) and time-resolved Forster resonance energy transfer (TR-FRET) readouts (FIG. 2A-2D). The cGAS assay was used to screen 100,000 compounds with full-length human cGAS (FIG. 2E), resulting in the identification of the novel chemotype of the disclosure, two of which are further developed in a structure-driven hit-to-lead study (Table 3, below). The assay performance was robust, as indicated by respective Z and Z′ values of 0.59 and 0.63 in the screen; compounds with polarization values greater than three SDs from the mean were considered hits; a scatterplot from 10 plates (3,200 compounds) is shown in FIG. 2D.
Biochemical and biophysical analysis: Potency and MOA studies, including Mn^2+ sensitivity, are performed using the cGAS enzymatic assay. Dose response experiments are used to determine IC50 values under basal conditions (5 mM MgCl2, 100 μM ATP/GTP), and with the addition of physiological levels of Mn (0.2 mM) using human and mouse cGAS. Ligand optimization is driven by potency with the human enzyme; potency with mouse cGAS informs selection of an appropriate disease model for efficacy studies. Competition with ATP and GTP is assessed by comparing basal IC50 values to those in the presence of saturating ATP or GTP, and subsequently confirmed by measuring velocity vs. substrate at varying ATP or GTP levels. Inhibitor residence times (1/koff) are used as a key parameter for prioritizing compounds and driving SAR, because a longer residence time often results from an allosteric mechanism, and can also correlate with improved cellular activity. The cGAS enzymatic assay is used with the jump dilution method to measure residence times (inhibitor dissociation rates), as described for kinases using the very similar ADP assay. Biophysical methods, including SPR and TSA, are used as orthologous methods for residence time measurements and kd estimates.

[1] = with Mn^2+, read-out: Inhibition cGAS + Mn^2+

Chain of cGAS (Q8N884 whole entry): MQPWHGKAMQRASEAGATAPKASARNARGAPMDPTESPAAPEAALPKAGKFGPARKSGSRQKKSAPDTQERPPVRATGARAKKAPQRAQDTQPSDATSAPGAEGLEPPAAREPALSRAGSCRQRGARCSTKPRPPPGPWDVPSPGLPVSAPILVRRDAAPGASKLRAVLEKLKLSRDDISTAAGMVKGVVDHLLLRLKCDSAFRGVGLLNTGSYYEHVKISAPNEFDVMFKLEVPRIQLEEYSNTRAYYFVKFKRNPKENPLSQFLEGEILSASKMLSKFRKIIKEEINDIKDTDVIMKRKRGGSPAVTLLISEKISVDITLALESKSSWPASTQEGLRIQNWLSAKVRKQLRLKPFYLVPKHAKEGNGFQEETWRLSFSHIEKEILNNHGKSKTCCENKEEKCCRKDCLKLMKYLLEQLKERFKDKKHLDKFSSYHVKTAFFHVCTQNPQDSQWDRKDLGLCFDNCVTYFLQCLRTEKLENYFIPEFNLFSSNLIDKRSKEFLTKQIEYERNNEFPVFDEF

Compound | pIC50 (read-out: Inhibition cGAS) | Inhibition cGAS | pIC50 [1]
Cc1nc(N2C[C@@H](NC3CCCNC3)C[C@H]2C(=O)O)c2oc3ccccc3c2n1 (stereo partly drawn) [Compound 37, (2S,4S)-1-(2-methylbenzofuro[3,2-d]pyrimidin-4-yl)-4-(piperidin-3-ylamino)pyrrolidine-2-carboxylic acid] | 6.00 to 6.30 | – | –
Cc1nc(N2C[C@@H](Nc3cccnc3)C[C@H]2C(=O)O)c2oc3ccccc3c2n1 [Compound 39, (2S,4S)-1-(2-methylbenzofuro[3,2-d]pyrimidin-4-yl)-4-(pyridin-3-ylamino)pyrrolidine-2-carboxylic acid] | – | B, D | –
Cc1nc(N2C[C@@H](NC(=O)Cc3c[nH]cn3)C[C@H]2C(=O)O)c2oc3ccccc3c2n1 [Compound 40, (2S,4S)-4-(2-(1H-imidazol-4-yl)acetamido)-1-(2-methylbenzofuro[3,2-d]pyrimidin-4-yl)pyrrolidine-2-carboxylic acid] | 6.00 to 6.30 | – | –
Cc1nc(N2C[C@@H](Nc3n[nH]cc3-c3ccccc3)C[C@H]2C(=O)O)c2oc3ccccc3c2n1 [Compound 41] | 6.00 to 6.30 | – | –
Cc1cncc(CC(=O)N[C@H]2C[C@@H](C(=O)O)N(c3nc(C)nc4c3oc3ccccc34)C2)c1 [Compound 42, (2S,4S)-1-(2-methylbenzofuro[3,2-d]pyrimidin-4-yl)-4-(2-(5-methylpyridin-3-yl)acetamido)pyrrolidine-2-carboxylic acid] | 6.00 to 6.30 | – | –
Cc1nc(N2C[C@@H](NC(N)=O)C[C@H]2C(=O)O)c2oc3ccccc3c2n1 [Compound 43, (2S,4S)-1-(2-methylbenzofuro[3,2-d]pyrimidin-4-yl)-4-ureidopyrrolidine-2-carboxylic acid] | 5.00 to 6.00 | – | –
Cc1nc(N2C[C@@H](NC(=O)[C@H]3CN3)C[C@H]2C(=O)O)c2oc3ccccc3c2n1 [Compound 44, (2S,4S)-4-((R)-aziridine-2-carboxamido)-1-(2-methylbenzofuro[3,2-d]pyrimidin-4-yl)pyrrolidine-2-carboxylic acid] | 5.00 to 6.00 | – | –
Cc1nc(N2C[C@@H](CC(N)=O)C[C@H]2C(=O)O)c2oc3ccccc3c2n1 [Compound 45, (2S,4R)-4-(2-amino-2-oxoethyl)-1-(2-methylbenzofuro[3,2-d]pyrimidin-4-yl)pyrrolidine-2-carboxylic acid] | 6.00 to 6.30 | – | –
Cc1nc(N2C[C@@H](CC(=O)Nc3ccccn3)C[C@H]2C(=O)O)c2oc3ccccc3c2n1 [Compound 46, (2S,4R)-1-(2-methylbenzofuro[3,2-d]pyrimidin-4-yl)-4-(2-oxo-2-(pyridin-2-ylamino)ethyl)pyrrolidine-2-carboxylic acid] | 5.00 to 6.00 | – | –
Cc1nc(N2C[C@@H](NC(=O)c3ncc[nH]3)C[C@H]2C(=O)O)c2oc3ccccc3c2n1 [Compound 47, (2S,4S)-4-(1H-imidazole-2-carboxamido)-1-(2-methylbenzofuro[3,2-d]pyrimidin-4-yl)pyrrolidine-2-carboxylic acid] | 5.00 to 6.00 | – | –
Cc1nc(N2C[C@@H](NC(=O)Cc3cccnc3N)C[C@H]2C(=O)O)c2oc3ccccc3c2n1 [Compound 49, (2S,4S)-4-(2-(2-aminopyridin-3-yl)acetamido)-1-(2-methylbenzofuro[3,2-d]pyrimidin-4-yl)pyrrolidine-2-carboxylic acid] | 6.00 to 6.30 | – | –
Cc1nc(N2C[C@@H](NC(=O)Cc3ccnc(C(N)=O)c3)C[C@H]2C(=O)O)c2oc3ccccc3c2n1 [Compound 50, (2S,4S)-4-(2-(2-carbamoylpyridin-4-yl)acetamido)-1-(2-methylbenzofuro[3,2-d]pyrimidin-4-yl)pyrrolidine-2-carboxylic acid] | 6.00 to 6.30 | – | –
Cc1nc(N2C[C@@H](CC(=O)NC3CCCC3)C[C@H]2C(=O)O)c2oc3ccccc3c2n1 [Compound 51, (2S,4R)-4-(2-(cyclopentylamino)-2-oxoethyl)-1-(2-methylbenzofuro[3,2-d]pyrimidin-4-yl)pyrrolidine-2-carboxylic acid] | 6.30 to 7.00 | – | 5.00 to 6.00

More lines, now with the values ahead:

pIC50 (read-out: Inhibition cGAS) | Inhibition cGAS | pIC50 [1] | Compound
6.30 to 7.00 | – | 5.00 to 6.00 | Cc1nc(N2C[C@@H](CC(=O)Nc3ccccc3)C[C@H]2C(=O)O)c2oc3ccccc3c2n1 [Compound 52, (2S,4R)-1-(2-methylbenzofuro[3,2-d]pyrimidin-4-yl)-4-(2-oxo-2-(phenylamino)ethyl)pyrrolidine-2-carboxylic acid]
5.00 to 6.00 | – | 5.00 to 6.00 | Cc1nc(N2[C@H](C(=O)O)C[C@@H]3C[C@@H]32)c2oc3ccccc3c2n1 [Compound 54, (1S,3S,5S)-2-(2-methylbenzofuro[3,2-d]pyrimidin-4-yl)-2-azabicyclo[3.1.0]hexane-3-carboxylic acid]
6.00 to 6.30 | – | 5.00 to 6.00 | Cc1nc(N2C[C@@H](Nc3n[nH]c4ccccc34)C[C@H]2C(=O)O)c2oc3ccccc3c2n1 [Compound 55, (2S,4S)-4-((1H-indazol-3-yl)amino)-1-(2-methylbenzofuro[3,2-d]pyrimidin-4-yl)pyrrolidine-2-carboxylic acid]
6.30 to 7.00 | – | 5.00 to 6.00 | Cc1nc(N2C[C@@H](NC(=O)C(C)(C)c3cn[nH]c3)C[C@H]2C(=O)O)c2oc3cc(F)ccc3c2n1 [Compound 57, (2S,4S)-1-(7-fluoro-2-methylbenzofuro[3,2-d]pyrimidin-4-yl)-4-(2-methyl-2-(1H-pyrazol-4-yl)propanamido)pyrrolidine-2-carboxylic acid]
6.00 to 6.30 | – | 5.00 to 6.00 | CC(C)(C(=O)N[C@H]1C[C@@H](C(=O)O)N(c2nc(C(F)(F)F)nc3c2oc2ccccc23)C1)c1cn[nH]c1 [Compound 58, (2S,4S)-4-(2-methyl-2-(1H-pyrazol-4-yl)propanamido)-1-(2-(trifluoromethyl)benzofuro[3,2-d]pyrimidin-4-yl)pyrrolidine-2-carboxylic acid]
6.30 to 7.00 | – | 5.00 to 6.00 | Cc1nc(N2C[C@@H](Nc3n[nH]cc3C(C)C)C[C@H]2C(=O)O)c2oc3ccccc3c2n1 [Compound 59, (2S,4S)-4-((4-isopropyl-1H-pyrazol-3-yl)amino)-1-(2-methylbenzofuro[3,2-d]pyrimidin-4-yl)pyrrolidine-2-carboxylic acid]
6.00 to 6.30 | – | – | Cc1nc(N2C[C@@H](N(C)C(=O)Cc3ccncc3)C[C@H]2C(=O)O)c2oc3ccccc3c2n1 [Compound 60, (2S,4S)-4-(N-methyl-2-(pyridin-4-yl)acetamido)-1-(2-methylbenzofuro[3,2-d]pyrimidin-4-yl)pyrrolidine-2-carboxylic acid]
6.00 to 6.30 | – | 5.00 to 6.00 | Cc1nc(N2C[C@@H](NC(=O)C(C)(C)c3ccnc(C(F)(F)F)c3)C[C@H]2C(=O)O)c2oc3ccccc3c2n1 [Compound 61, (2S,4S)-4-(2-methyl-2-(2-(trifluoromethyl)pyridin-4-yl)propanamido)-1-(2-methylbenzofuro[3,2-d]pyrimidin-4-yl)pyrrolidine-2-carboxylic acid]
6.00 to 6.30 | – | 5.00 to 6.00 | Cc1nc(N2C[C@@H](NC(=O)C3(c4ccncc4)CC3)C[C@H]2C(=O)O)c2oc3ccccc3c2n1 [Compound 62, (2S,4S)-1-(2-methylbenzofuro[3,2-d]pyrimidin-4-yl)-4-(1-(pyridin-4-yl)cyclopropane-1-carboxamido)pyrrolidine-2-carboxylic acid]
5.00 to 6.00 | – | 5.00 to 6.00 | Cc1nc(N2C[C@@H](Nc3n[nH]cc3-c3ccccn3)C[C@H]2C(=O)O)c2oc3ccccc3c2n1 [Compound 63, (2S,4S)-1-(2-methylbenzofuro[3,2-d]pyrimidin-4-yl)-4-((4-(pyridin-2-yl)-1H-pyrazol-3-yl)amino)pyrrolidine-2-carboxylic acid]
5.00 to 6.00 | – | 5.00 to 6.00 | Cc1nc(N2C[C@@H](N(C)c3n[nH]cc3C)C[C@H]2C(=O)O)c2oc3ccccc3c2n1 [Compound 64, (2S,4S)-4-(methyl(4-methyl-1H-pyrazol-3-yl)amino)-1-(2-methylbenzofuro[3,2-d]pyrimidin-4-yl)pyrrolidine-2-carboxylic acid]
5.00 to 6.00 | – | 5.00 to 6.00 | Cc1nc(N2C[C@@H](Cc3nnn[nH]3)C[C@H]2CO)c2oc3ccccc3c2n1 [Compound 65, ((2S,4R)-4-((1H-tetrazol-5-yl)methyl)-1-(2-methylbenzofuro[3,2-d]pyrimidin-4-yl)pyrrolidin-2-yl)methanol]
6.30 to 7.00 | – | 5.00 to 6.00 | Cc1nc(N2C[C@@H](NC(=O)C(C)(C)c3cn[nH]c3)C[C@H]2C(=O)O)c2oc3ccccc3c2n1 [Compound 66, (2S,4S)-4-(2-methyl-2-(1H-pyrazol-4-yl)propanamido)-1-(2-methylbenzofuro[3,2-d]pyrimidin-4-yl)pyrrolidine-2-carboxylic acid]
